# Data from patent US5556777A, “Immunosuppressive pharmaceutical compositions new biological activity from a marine agrobacterium sp” (PharmaMar, s.a., priority 1993, dated 1996).
# Assays:
# [1] = tested on: murine lymphocytes (Balb/c and C57BI/6, cocultured); test: In vitro murine mixed lymphocyte reaction (MLR); type: cell-based; conditions: for MLR IC50: murine MLR, 96 h incubation, 15 h 3H-Thy pulse; for Index Cytotox./Activity: ratio LcV IC50 / MLR IC50
# Experimental: The MLR is an in vitro test of cellular immunity in which murine lymphocytes from genetically dissimilar animals are cocultured to mutually induce cell proliferation (i.e., two-way MLR method). Mixed cell suspensions, together with the test compound, are incubated for 96 hours and subsequently pulsed for 15 hours with tritiated-thymidine (3H-Thy), a radioisotopically labelled nucleic acid. Tritiated-thymidine is incorporated into the DNA of proliferating cells. Data from the MLR is generated as dpm of radioactivity which is then expressed as a percentage of cellular activity, relative to control, using the following reduced formula: [formula]
# A 50% inhibitory concentration (IC50) value was interpolated for sesbanimide containing fractions tested. A ratio between cytotoxicity, as determined from the LcV described below, and activity in the MLR is also presented. A high ratio distinguishes noncytotoxic immunosuppression from general cytotoxicity.
# Reconstituted extract (10 μl) is added in two sets of duplicates into wells of a 96-well microtiter plate and evaporated to dryness at room temperature. […] To the other set of sample duplicates is added complete media without cells so as to provide for background color control data. All plated are incubated in a 5% CO2 incubator for 96 hours and pulsed for 15 hours with 100 μl containing 1 μCi/well tritiated-thymidine (^3 H-Thy). The plates are harvested onto glass fiber filter discs using an INOTECH harvester. The filter discs are counted directly using an INOTECH dry scintillation counter. The activity of the discs are calculated as a relative proliferative percent of a mean control value as described above.
# [2] = Lymphocyte viability / cytotoxicity assay (LcV), MTT; type: cell-based, murine; conditions: mouse, lymphocytes; LcV; read-out: cytotoxicity IC50
# Experimental: (§1) The LCV is a in vitro cytotoxicity assay for murine lymphocytes designed by the investigator. The LCV is similar to the MLR with the exception that only one cell population (Balb/c) is incubated with the test compound to assess cytotoxicity as distinct from the antiproliferative effects of a test compound. That is, unlike the unambiguous determination of immunostimulation from MLR data, a judgement of immunosuppression can not be immediately interpreted. Cytotoxicity (e.g., due to direct cell lysis) from a compound can occur which would alter viability determinations inherent in the generation of MLR data. […] The percent viable cells is determined by the MTT-thiazolyl blue method after a similar incubation to the MLR of lymphocytes with the test sample. MTT is a substrate converted by mitochondrial enzymes in living cells to a purple, water-insoluble, formazan crystal. If there is no significant reduction in cell viability, as determined by this detection method, then damaged cells are probably not present for low data values generated in the MLR. Colorimetric data from the LCV is calculated as a percentage of viability, relative to control, using the following formula: [formula]
# (§2) A 50% viability, or 50% cytotoxicity, (IC50) value was interpolated for sesbanimide containing fractions tested.
# (§3) Lymphocytes are prepared as described above for the MLR with the exception that cells from only one murine strain are prepared (BLAB/c). Reconstituted extract (10 μl) is added in two sets of duplicates into wells of a 96-well microtiter plate and evaporated to dryness at room temperature. Lymphocytes (2.5×10^6 cells/ml) are added to one set of duplicates and to wells containing no sample. Media containing no cells are added to the other set of duplicates to provide background color control data. Plated are incubated in a 5% CO2 incubator for 4 hours and pulsed with MTT-thiazolyl blue for 6-8 hours.
# [3] = tested on: murine lymphocytes (Balb/c); test: as above; type: cell-based; conditions: murine lymphocytes, MTT viability (50% cytotoxicity)
# Experimental: as §1, §2, §3
# [4] = Toxicology (MTD, LD50) in CD-1 or CB6F1 mice; type: in vivo, mouse; conditions: mouse, in vivo, CD-1 or CB6F1 mice
# Experimental: (§4) The MTD establishes the parameters to establish in vivo dosages initiated for studying the Graft-v-Host reaction and skin grafting. The Swiss conventional mouse (Charles River CD-1) is used in a weight range from 18-30 g.
# (§5) Animals are injected with a single dose at four dose levels: e.g., 400 mg/kg, 100 mg/kg, 40 mg/kg, and 10 mg/kg in 0.5 ml of sterile vehicle (2 animals per dose, MTD). A saline solution containing 5% non-denatured EtOH and a drop of Tween-80 detergent is used a vehicle for dilution. Stirring and sonication are utilized to effect solution or suspension of the composition. The composition is injected within one hour of preparation. Animals are observed for five days (MTD) after injection for toxic symptoms and/or death. Group weights are taken D0 and D5. Surviving animals are sacrificed on D5 (MTD). A `Daily Logsheet` used in the toxicity studies is appended.
# [5] = tested on: CD-1 or CB6F1 mice; test: Toxicology (MTD, LD50) in CD-1 or CB6F1 mice; type: in vivo, mouse
# Experimental: as §4, §5
# [6] = tested on: Graft-v-Host Reaction; test: In vivo Graft-v-Host reaction (GVHR), spleen index; set-up: species or system mouse
# Experimental: Any sample that prevents splenomegaly (<graft index) is considered as an immunosuppressive active.
# A standard of cyclophosphamide (200 mg/kg) is used. Experimental animals are sacrificed on D8 and spleens removed. […] Moribund animals are sacrificed immediately.
# [7] = tested on: leukemia; conditions: isolated from Sesbania drummondi; cited from earlier work
# [8] = tested on: Agrobacterium sp. strain PH-103; test: Antibiotic sensitivity of strain PH-103 (sensitivity discs); type: cell-based; conditions: 27° C.
# Experimental: 18. Antibiotic sensitivity--ATCC number 231 basal medium. Difco sensitivity discs
# The culture was incubated at 27° C. and records of the results were made after suitable incubation times. All media were prepared with 2.7% Instant Ocean Salts and pH was approximately neutral (7-7.4). The description of the culture and test results are as follows: […]
# [9] = tested on: primary mixed lymphocyte cultures (MLRs) and alloreactive T cells; conditions: compared with cyclosporin A; cited from earlier work
compound,measurement,setting,value
"C=C1COC(O)(C2OCOC(C3CC(=O)NC(=O)C3)C2O)C1C (single isomer, unassigned) [Sesbanimide]",immunosuppressive activity (in words),"[1]; Table 4 data: trace amounts of an extract, major constituent, or pure compound",potent immunosuppressive activity
same,MLR IC50,[1]; listed as ET 103/64-6:8,< 0.0075 µg/mL
same,MLR IC50,[1]; listed as ET 103/89-4,0.00015 µg/mL
same,Index Cytotox./Activity,[1]; listed as ET 103/64-6:8,"> 1,746"
same,Index Cytotox./Activity,[1]; listed as ET 103/89-4,"2,777"
same,CC50 at 4 h,[2],0.417 to 3.6 µg/mL
same,LcV IC50,[3]; listed as ET 103/64-6:8,13.100 µg/mL
same,LcV IC50,[3]; listed as ET 103/89-4,0.417 µg/mL
same,survival at 120 h,"[4]; at maximum tolerated dose, read-out: Alive Day 5",100%
same,MTD at 120 h,[4]; read-out: Maximum Tolerated,0.56 mg/kg
same,LD50,[5]; CD-1 or CB6F1 mice,0.805 mg/kg
same,"toxicity at 56, 10.5 and 5.6 mg/kg","[5]; pure compound, in vivo, 56, 10.5 and 5.6 mg/kg",toxic
same,toxicity at total doses equal to or lower than 0.56 mg/kg,"[5]; pure compound, in vivo, total dose ≤0.56 mg/kg",no toxicity
same,immunosuppressive activity in GVHR (in words),[6]; Table 6 data,potent immunosuppressive activity
same,Alive Day 8,"[6]; optimal dose 0.2 mg/kg, i.p. per diem 7 days",40%
same,GVHR Index,"[6]; optimal dose 0.2 mg/kg, i.p. per diem 7 days, positive 1.34",0.92
same,antineoplastic activity (in words),[7],"antineoplastic activity, particularly against leukemia"
CN[C@H](CC(C)C)C(=O)N[C@H]1C(=O)N[C@@H](CC(N)=O)C(=O)N[C@H]2C(=O)N[C@H]3C(=O)N[C@H](C(=O)N[C@H](C(=O)O)c4cc(O)cc(O)c4-c4cc3ccc4O)[C@H](O)c3ccc(c(Cl)c3)Oc3cc2cc(c3O[C@@H]2O[C@H](CO)[C@@H](O)[C@H](O)[C@H]2O[C@H]2C[C@](C)(N)[C@H](O)[C@H](C)O2)Oc2ccc(cc2Cl)[C@H]1O [vancomycin],Antibiotic sensitivity of strain PH-103,[8],resistant
"O=P1(N(CCCl)CCCl)NCCCO1 (stereo not shown) [Cyclophosphamide, cyclophosphamide]",Alive Day 8,"[6]; 200.0 mg/kg, test 124-93",100%
same,GVHR Index,"[6]; 200.0 mg/kg, test 124-93, positive 1.32",0.23
same,Alive Day 8,"[6]; 200.0 mg/kg, test 811-93",60%
same,GVHR Index,"[6]; 200.0 mg/kg, test 811-93, positive 1.34",0.28
CCn1cc(C(=O)O)c(=O)c2ccc(C)nc21 [nalidixic acid],Antibiotic sensitivity of strain PH-103,[8],Sensitive
polymyxin,Antibiotic sensitivity of strain PH-103,[8],resistant
C=CC[C@@H]1/C=C(\C)C[C@H](C)C[C@H](OC)[C@H]2O[C@@](O)(C(=O)C(=O)N3CCCC[C@H]3C(=O)O[C@H](/C(C)=C/[C@@H]3CC[C@@H](O)[C@H](OC)C3)[C@H](C)[C@@H](O)CC1=O)[C@H](C)C[C@@H]2OC [FK 506],potency relative to cyclosporin A (in words),[9],more potent than cyclosporin A
